Assay results: ChEMBL document CHEMBL4706673, “The study on structure-activity relationship between chromone derivatives and inhibition of superoxide anion generating from human neutrophils” (Bioorg Med Chem Lett, 2021)
Calls of active or inactive are those of the source. The calls are words filed in the database; no cut-off is given here.

What was measured:
Neutrophil = assay: Inhibition of elastase release in fMLF/CB-stimulated human neutrophil at 10 µM
[1] = Inhibition of fMLF/CB-induced superoxide anion generation in human neutrophil; format: functional, tissue-based
[2] = Inhibition of fMLF/CB-induced superoxide anion generation in human neutrophil at 10 uM relative to control; format: functional

Row | SMILES | inhibition (Neutrophil) | IC50 [1] [µM] | inhibition at 10 µM [2] [%]
1 | COc1cccc(Oc2cc(=O)c3c(OC)cc(OC)cc3o2)c1 | inactive | > 10 | 22.4
2 | COc1cccc(Oc2cc(=O)c3ccc(OC)cc3o2)c1 | inactive | > 10 | 46.8
3 | COc1cc(OC)c2c(=O)cc(Oc3ccc(OC)c(OC)c3)oc2c1 | inactive | > 10 | 7.8
4 | COc1ccc2c(=O)cc(Sc3cccc(F)c3)oc2c1 | inactive | 5 | 70.9
5 | COc1cccc2oc(Sc3cccc(F)c3)cc(=O)c12 | inactive | > 10 | 10.6
6 | COc1ccc2c(=O)cc(Oc3ccccc3OC)oc2c1 | inactive | > 10 | 3.8
7 | COc1cc(OC)cc(Oc2cc(=O)c3c(OC)cccc3o2)c1 | inactive | > 10 | -0.4
8 | COc1ccc2c(=O)cc(Oc3cccc(O)c3)oc2c1 | inactive | > 10 | 6.9
9 | COc1cc(OC)c2c(=O)cc(Oc3ccccc3OC)oc2c1 | inactive | > 10 | 2.5
10 | O=c1cc(N2CCOCC2)oc2c(-c3ccccc3)cccc12 [LY-294002] | – | 1.3 | 93.4
11 | COc1cc(OC)c2c(=O)cc(Sc3cccc(F)c3)oc2c1 | inactive | 7 | 61
12 | COc1ccc2c(=O)cc(Oc3ccc(O)c(OC)c3)oc2c1 | inactive | 5.2 | 71.3
13 | COc1cc(OC)cc(Oc2cc(=O)c3c(OC)cc(OC)cc3o2)c1 | inactive | > 10 | 27.5
14 | COc1ccc(Oc2cc(=O)c3c(OC)cccc3o2)cc1OC | inactive | > 10 | 12.8
15 | COc1cc2oc(Sc3cccc(F)c3)cc(=O)c2c(OC)c1OC | inactive | > 10 | 47.5
16 | COc1ccc2oc(Sc3cccc(F)c3)cc(=O)c2c1 | inactive | > 10 | 17.3
